In patent US20230002344A1, “NOVEL BENZOTHIOPHENE DERIVATIVES AND USE THEREOF FOR STIMULATING MITOCHONDRIAL TURNOVER” (NIBN, The National Institute For Biotechnology In The Negev …, priority 2019, published 2023):

Columns and labels:
Assay type in all cases: cell-based
[1] = test system: INS1 cells expressing MitoTimer; assay: MitoTimer red/green ratio high-content screen and dose-response
Method: INS1 cells were stably transduced with MitoTimer by lentiviral infection and were tested using known modulators of autophagy. The paradigm used was based on previous reports showing that the shift in emission from green to red occurs within 18 hours. Assuming that this shift is constant, changes in red FI occurring during this frame of time can result from an effect on MitoTimer clearance and not from an effect on synthesis. The paradigm employed consisted therefore of a treatment lasting 18 hours followed by imaging.
Stimulators of mitochondrial clearance were defined as those inducing a red-to-green FI below −3 and a red intensity below −5.1. Suppressors of mitochondrial clearance were defined as those inducing a red-to-green FI above 10.34 and a red intensity above 4.5. […] Compounds displaying high green FI (above 15) were also discarded to prevent the inclusion of autofluorescent molecules. Only molecules that filled the above criteria in both duplicates were further tested.
The screen was performed during 8 sessions in Weizmann institute. All compounds were tested at a concentration of 10 μM, in duplicates. The images were processed to reduce background (using Metamorph software) and then analyzed in GeneData software.
We subjected those compounds to a dose-response assay (concentrations: 10, 3.33, 1.11, 0.37 and 0.12 μM).
MitoTimer expressing INS1 cells generation, Cell Culture and treatments. MitoTimer-reporter was cloned into the pHAGE2 lenti-vector under the full-length EF1-alpha promoter to obtain constitutive expression. For the HCS, INS1 cells were infected with lentivirus carrying mitochondrial complex-I-targeted-MitoTimer plasmid. Highly expressing cells were selected by high speed fluorescence activated cell sorter (SY3200 cell sorter, Synergy, iCyt) and kept by the addition of puromycin (1 mg . L-1) in the cell media. Cells were thawed before each experiment, and MitoTimer expression checked through fluorescence.
High-Content Screening. […] HCS assay was developed at the Drug Discovery Unit, INCPM, Weizmann Institute of Science. […] Briefly, cells were treated with 10 uM of each compounds for 18 h and imaged in two wavelengths (FITC—excitation […], emission 520/35 nm and TRITC—excitation 543/22 nm, emission 593/40 nm) at ImageXpress Micro High-Content Imaging System/Molecular Devices. Rapamycin 100 nM was used as a control. In each cell plate, the neutral (DMSO) and positive control (Rapamycin) were repeated in 16 replicates while the treatments were performed in duplicates. Each plate was replicated and only hits found in the 2 independent plates were considered. Two fields of each well were analyzed, what normally allowed the analysis of 20-40 cells per condition. MitoTimer red/green ratio for every cell was done in MetaXpress. […] The compounds which affected MitoTimer red/green ratio in a dose response, ranging from […], were classified as a hit.
Individual cells were identified using the red channel, and red and green MitoTimer fluorescence were analyzed and ratio determined per cell.

INS1 cells [2] = assay: Mitochondrial morphology (aspect ratio, circularity); settings: 25 uM, 24 h
Method: INS1 cells were treated with SPB08007 (25 uM) or DMSO (0.1%) for 24 h. Mitochondria were stained with Mitotracker Green and TMRE (images represented in FIG. 10). MTG fluorescence was used to calculate Aspect Ratio (AR) (FIG. 16A) and circularity (FIG. 16B) of mitochondrial structures.

INS1 cells [3] = assay: Western blot against LC3 (autophagic flux)
Method: (§1) The Z-score depicts the standard deviation from the neutral control (DMSO). In FIG. 3C: Mitochondrial mass in INS1 cells treated for 18 hours with either DMSO (control), Urolithin A (25 μM), SPB08007 (“SBP”) (25 μM) or MWP00839 (“MWP”) (11.5 μM) and then stained with Mitotracker green (200 nM). In FIG. 3D: SPB08007 and MWP00839 increase the number of mitochondria inside autolysosomes. INS1 cells expressing mCherry-GFP were exposed to SPB08007, MWP00839, and DMSO for 8 hours and then subjected to confocal microscopy. The area of red fluorescence in the taken images was determined. N=3+/−SEM pANOVA<0.05. FIG. 3E provides representative images. […] FIG. 3F provides the Western blot against LC3 in INS1 cells treated with the compounds in presence or absence of bafilomycin (+b) for the last 2 hours.

INS1 cells [4] = assay: Mitochondrial mass by Mitotracker green staining; settings: 18 h; SPB08007 25 μM, MWP00839 11.5 μM, Urolithin A 25 μM
Method: as §1
Mitotracker Green Fluorescence, Anion Radical Superoxide and Mitochondrial Membrane Potential. INS1 cells were seeded into wells of a 96-wells glass bottom cell culture plate (CELLSTAR) at a density of 2*10^4 cells/well. To assess mitochondrial clearance, a pulse-chase experiment was performed. […] Results are expressed as the percentage of MTG fluorescence relative to MTG fluorescence of the “time 0” control. […] Integrated fluorescence of each field was analyzed in Image J after background subtraction and threshold (IsoData) application. Twenty-four fields of each condition were analyzed in each experiment.

In the case of `CC(=O)N/C(=C\c1sc2ccccc2c1C)C(=O)O` [SPB08007], the “red/green MitoTimer ratio” value ([1]; 10 uM, INS1 cells) is reported as “reduced”, the MitoTimer green readout ([1]; 50 uM dose) is reported as “increase” and the “maximum reduction on the ratio index (MitoTimer red/green)” value ([1]; 50 uM dose, 18 h, vs DMSO) is reported as 40%. The “optimal dose for stimulating a reduction in red-to-green FI” value ([1]; INS1 cells, 18 h) was 25 µM, the “activity (MitoTimer red-to-green FI, Z-score vs DMSO)” value ([1]; INS1 cells, 18 h, dose-response) was −3.018 and the EC50 ([1]; Rattus norvegicus, INS1 cells, 18 h, dose-response, read-out: qEC50) was 49 µM. The mitochondrial morphology (INS1 cells [2]) was “does not alter”, the “autophagy (LC3II, with or without bafilomycin)” value (INS1 cells [3]) was “increase in autophagy” and the “mitochondrial mass (mitotracker green fluorescence)” value (INS1 cells [4]) was “reduction in fluorescence”.
